# Experimental data taken from US20100130457A1, “Phenothiazine Derivatives for Treatment of Asthma” (Immune Control, Inc., priority 2008, published 2010).
# Entries after “also recorded” stand apart in the source; their conditions may differ. Like-named read-outs stand apart in the source and are kept apart here.
# What was measured:
# [1] = biological target: 5-HT1B receptor (Homo sapiens, UniProt P28222); assay: Serotonin-receptor binding assay; conditions: 10 μM and 0.1 μM
# From the text: (§1) The methods employed in this study have been adapted from the scientific literature to maximize reliability and reproducibility. The experiments include contacting a serotonin type 1A, 1B, 1D, 2A, 2B, 2C, 3, 4, 5A, 6, and 7 receptor with a test compound and comparing the level of binding of serotonin or a control compound (e.g., fluphenazine) with that serotonin type 1A, 1B, 1D, 2A, 2B, 2C, 3, 4, 5A, 6, and 7 receptor with the level of serotonin binding or control compound binding with an otherwise identical serotonin type 1A, 1B, 1D, 2A, 2B, 2C, 3, 4, 5A, 6, and 7 receptor not contacted with the test compound. […] The skilled artisan would also appreciate, in view of the disclosure provided herein, that standard binding assays known in the art, or those to be developed in the future, can be used to assess the binding of serotonin or a control compound with a serotonin type 1A, 1B, 1D, 2A, 2B, 2C, 3, 4, 5A, 6, and 7 receptor in the presence or absence of the test compound to identify a useful compound.
# (§2) ICI-735 and fluphenazine were tested for selective binding to 1A, 1B, 1D, 2A, 2B, 2C, 3, 4, 5A, 6, and 7 receptors at concentrations of 10 μM and 0.1 μM.
# [2] = biological target: 5-HT7 receptor (Homo sapiens, UniProt P34969); assay: Serotonin-receptor binding assay; conditions: 10 μM and 0.1 μM
# From the text: as §1, §2
# [3] = biological target: 5-HT2A receptor (Homo sapiens, UniProt P28223); assay: Serotonin-receptor binding assay; conditions: 10 μM and 0.1 μM
# From the text: as §1, §2
# [4] = test system: RPMI 8226; assay: Inhibition of proliferation of RPMI 8226 cells; assay type: cell-based, human; conditions: RPMI cells in vitro
# From the text: The next set of experiments was designed to assess compounds that have low levels of brain penetration for the ability of the test compounds to inhibit cellular proliferation. An exemplary in vitro assay is to screen for the ability of the test compounds to inhibit proliferation of the B-cell neoplastic cell line RPMI 8226 (a plasmacytoma derived from a multiple myeloma patient (Matsuoka, et al., 1967, Proc. Soc. Exp. Biol. Med. 125: 1246-1250). However other cell line can be used such as, U266 (established from an IgE-secreting myeloma patient (Nilsson, et al., 1970, Clin. Exp. Immunol., 7: 477-489) and ARH77 (an EBV transformed plasma cell leukemia (Burk, et al., 1978, Cancer Res. 38: 2508-2513).
# FIG. 1 is a graph depicting the effects on the test compounds on RPMI cell viability.
# [5] = test system: panel of leukotriene and prostanoid receptors; assay: Receptor binding panel
# [6] = MPR1-MDCK permeability, potential to cross the blood-brain barrier; assay type: in vitro ADME; conditions: dog, MDCK
# From the text: (§3) A criterion for selecting an agent for proceeding to clinical trials is whether the compound crosses the blood-brain barrier. […] Fluphenazine (ICI-01175) is used as a control compound that has the potential to cross the blood-brain barrier. Table 1 summarizes the results of the test compounds for their potential to cross the blood-brain barrier.
# [7] = test system: MPR1-MDCK; assay: as above; assay type: in vitro ADME; conditions: from A-B Papp and efflux ratio
# From the text: as §3
# [8] = biological target: T1, hERG (Homo sapiens, UniProt Q12809); assay: Cardiac ion channels expressed in mammalian cells; assay type: cell-based; conditions: 0.1 μM, 1 μm, 10 μm, and 100 μm
# T1 construct: expressed in transfected cells
# From the text: Voltage-gated K channels are activated by membrane depolarization. As with all voltage-gated ion channels, depolarization results in a conformational change in the S4 voltage sensor which contains positively charged amino acids. This conformational change triggers additional conformational changes leading to channel opening. Upon depolarization, these channels open, allowing the efflux of potassium from the cell, down its electrochemical gradient. They function in the heart and brain to repolarize the membrane potential and to terminate an action potential. A-type potassium currents are quickly inactivating potassium currents (eg, Kv4.2 and Kv1.4) and are important in the initial notch of repolarization in cardiac cells and the fast-spiking behavior of some neurons. Slowly inactivating channels provide more prolonged repolarization effects (eg, Kv1.5, Kv3.1, Kv2.1). hERG (human Ether-a-go-go Related Gene) channels are unusual voltage-gated potassium channels in that they are inwardly rectifying due to accelerated inactivation at positive voltages. hERG channels play a role in long-QT syndrome and block of hERG can precipitate torsades de pointe which may lead to fatal ventricular fibrillation. Screening of drugs for effects on hERG is desirable in investigational compounds. […]
# [9] = test system: isolated rabbit Purkinje fibers; assay: Action potential of isolated rabbit Purkinje fibers
# From the text: Further assessment in rabbit Punkinje fibers was undertaken to directly measure concentration-dependent changes in action potential induced by ICI-735.
# [10] = test system: BALB/c mice, Af-induced allergic airway inflammation; assay: Bronchoalveolar lavage (BAL) analysis for cell count and cytokines in the asthma model; assay type: in vivo, mouse
# Protocol: Lungs from the tested animals in Example 2 were lavaged with either a small volume (1 ml) of sterile PBS or a large volume (5 ml) of sterile saline, and total and differential cell counts were performed as described previously (Haczku et al., 1999 Am. J. Respir. Crit. Care Med. 159: 1638-1643; Haczku et al., 2000 Am. J. Respir. Crit. Care Med. 161: 952-960).
# With respect to the murine model of allergen induced AHR, BALB/c mice were sensitized and challenged via intranasal instillation of Aspergillus fumigatus (Af). Two hours prior to each intranasal challenge, cohorts of five mice were administered intra peritonially (i.p.) with ICI-735 (1 mg/ml), dexamethasone (10 mg/ml). Four hours after the last allergen challenge, airway function was assessed by flexivent. Differential cytokine and immune cell abundance were also accessed in BAL fluid.
# Chain of 5-HT1B receptor (P28222 whole entry): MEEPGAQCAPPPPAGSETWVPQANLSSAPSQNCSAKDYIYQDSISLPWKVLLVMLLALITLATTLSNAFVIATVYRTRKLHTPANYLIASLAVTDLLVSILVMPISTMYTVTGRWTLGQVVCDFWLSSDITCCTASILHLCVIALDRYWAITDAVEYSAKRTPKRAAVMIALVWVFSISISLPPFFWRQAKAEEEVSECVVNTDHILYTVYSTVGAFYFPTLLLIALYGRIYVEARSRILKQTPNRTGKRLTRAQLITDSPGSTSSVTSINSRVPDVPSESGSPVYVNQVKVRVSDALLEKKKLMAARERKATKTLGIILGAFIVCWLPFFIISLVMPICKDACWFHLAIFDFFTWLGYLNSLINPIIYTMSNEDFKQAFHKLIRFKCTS
# Chain of 5-HT2A receptor (P28223 whole entry): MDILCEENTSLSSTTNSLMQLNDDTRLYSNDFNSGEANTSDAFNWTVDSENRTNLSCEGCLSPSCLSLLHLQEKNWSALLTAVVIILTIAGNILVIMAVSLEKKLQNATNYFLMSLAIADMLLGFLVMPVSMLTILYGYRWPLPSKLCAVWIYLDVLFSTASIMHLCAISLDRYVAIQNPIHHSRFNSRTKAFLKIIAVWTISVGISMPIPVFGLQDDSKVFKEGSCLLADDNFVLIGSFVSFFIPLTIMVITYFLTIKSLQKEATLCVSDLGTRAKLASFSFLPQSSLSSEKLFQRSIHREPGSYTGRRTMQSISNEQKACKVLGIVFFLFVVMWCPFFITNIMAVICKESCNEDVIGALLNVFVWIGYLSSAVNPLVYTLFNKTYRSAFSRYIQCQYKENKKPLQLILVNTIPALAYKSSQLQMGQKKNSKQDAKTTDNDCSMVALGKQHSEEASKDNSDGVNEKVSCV
# Chain of 5-HT7 receptor (P34969 whole entry): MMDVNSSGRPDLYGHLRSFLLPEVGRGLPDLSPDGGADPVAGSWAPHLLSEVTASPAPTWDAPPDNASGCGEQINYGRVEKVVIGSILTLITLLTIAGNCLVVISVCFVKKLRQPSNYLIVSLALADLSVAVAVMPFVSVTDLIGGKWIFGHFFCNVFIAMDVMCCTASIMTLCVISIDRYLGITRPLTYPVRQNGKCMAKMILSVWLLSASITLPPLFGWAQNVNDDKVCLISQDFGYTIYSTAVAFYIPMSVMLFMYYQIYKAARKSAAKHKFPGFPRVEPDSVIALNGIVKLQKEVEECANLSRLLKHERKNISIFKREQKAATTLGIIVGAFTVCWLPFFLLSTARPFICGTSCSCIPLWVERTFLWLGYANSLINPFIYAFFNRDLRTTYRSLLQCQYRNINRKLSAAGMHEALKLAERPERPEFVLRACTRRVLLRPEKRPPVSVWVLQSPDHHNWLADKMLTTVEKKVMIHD
# T1 sequence (Q12809 whole entry): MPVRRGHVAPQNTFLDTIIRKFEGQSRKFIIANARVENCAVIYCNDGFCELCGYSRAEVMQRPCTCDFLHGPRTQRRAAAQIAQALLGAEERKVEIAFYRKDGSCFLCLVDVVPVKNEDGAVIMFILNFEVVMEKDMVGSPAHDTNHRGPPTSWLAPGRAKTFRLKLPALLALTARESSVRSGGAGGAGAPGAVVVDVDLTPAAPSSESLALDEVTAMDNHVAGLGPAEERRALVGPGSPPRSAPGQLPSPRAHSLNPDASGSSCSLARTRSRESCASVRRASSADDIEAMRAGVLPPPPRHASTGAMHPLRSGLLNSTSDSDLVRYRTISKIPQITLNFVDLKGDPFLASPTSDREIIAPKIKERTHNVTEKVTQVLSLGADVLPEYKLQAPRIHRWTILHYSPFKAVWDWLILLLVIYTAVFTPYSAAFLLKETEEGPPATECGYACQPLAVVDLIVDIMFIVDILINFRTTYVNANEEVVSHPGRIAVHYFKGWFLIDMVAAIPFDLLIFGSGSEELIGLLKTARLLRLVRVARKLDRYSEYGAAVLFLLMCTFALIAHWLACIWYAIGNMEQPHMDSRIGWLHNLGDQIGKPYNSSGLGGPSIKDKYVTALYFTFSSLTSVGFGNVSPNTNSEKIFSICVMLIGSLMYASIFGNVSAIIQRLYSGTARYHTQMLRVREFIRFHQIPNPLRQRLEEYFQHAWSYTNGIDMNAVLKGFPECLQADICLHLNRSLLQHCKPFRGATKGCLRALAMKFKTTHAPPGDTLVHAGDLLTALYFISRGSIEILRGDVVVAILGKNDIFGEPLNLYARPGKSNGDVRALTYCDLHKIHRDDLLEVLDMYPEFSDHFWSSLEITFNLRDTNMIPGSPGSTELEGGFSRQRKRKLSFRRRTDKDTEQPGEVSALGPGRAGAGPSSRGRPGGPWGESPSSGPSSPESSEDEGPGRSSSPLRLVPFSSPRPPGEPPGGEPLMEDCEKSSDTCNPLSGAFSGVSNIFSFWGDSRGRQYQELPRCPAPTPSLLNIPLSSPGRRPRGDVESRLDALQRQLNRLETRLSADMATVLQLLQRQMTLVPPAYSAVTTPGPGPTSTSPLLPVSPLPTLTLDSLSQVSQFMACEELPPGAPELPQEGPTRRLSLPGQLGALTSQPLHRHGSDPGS
compound,measurement,setting,value
NCC(=O)NCCN1CCN(CCCN2c3ccccc3Sc3ccc(C(F)(F)F)cc32)CC1 [ICI-735],binding to 5-HT1B receptor as compared to fluphenazine,[1],significant increase activity; also recorded: increased binding
same,binding to 5-HT7 receptor as compared to fluphenazine,[2],significant increase activity; also recorded: increased binding
same,binding to 5-HT2A receptor as compared to fluphenazine,[3],decrease activity; also recorded: decreased binding
same,ability to inhibit proliferation of RPMI cells,[4],"did not inhibit proliferation of RPMI cells in vitro as well as some other compounds; also recorded: effective, but not as effective"
same,binding to a panel of leukotriene and prostanoid receptors,[5],does not bind
same,Papp A→B,[6]; A-B direction,0.23 ×10⁻⁶ cm/s
same,recovery,"[6]; A-B direction, read-out: % Recovery A-B",47%
same,Papp B→A,[6]; B-A direction,28.6 ×10⁻⁶ cm/s
same,recovery,"[6]; B-A direction, read-out: % Recovery B-A",33%
same,efflux ratio,[6]; efflux ratio,124
same,Brain Penetration Classification,[7],Low (A-B Papp > 3.0 and Efflux Ratio > 10: Low)
same,block of hERG,[8],able to block
same,effect on action potential duration at 60% (APD60) and APD90,[9],lack of effect
same,cytokine production in BAL,[10]; Af-sensitized mice,little effect; also recorded: no significant effects
same,total number of cells / immune cell infiltration in BAL,"[10]; asthmatic animals, treated vs untreated",not a significant difference; also recorded: little effect; also recorded: no significant effects
